Calls of active or inactive are those of the source. The rule behind the calls is not given here.

In experiment [1] the test system is NIH3T3. The experiment can be described thus: Cytotoxicity against mouse NIH/3T3 cells after 96 hrs by SRB assay. The format is cell-based. A general note: The SRB assay estimates cell density from bound dye.
The test system of experiment [2] is HT-29. Kind of experiment: Cytotoxicity against human HT-29 cells after 96 hrs by SRB assay. The format is functional, cell-based.
A short description of experiment [3]: Cell cycle arrest in human 518A2 cells assessed as accumulation at S phase at 50 uM after 24 hrs by propidium iodide staining (reference value: 44.643%). The experiment is classed as functional, cell-based.
The nature of experiment [4]: Cell cycle arrest in human 518A2 cells assessed as accumulation at G2/M phase at 50 uM after 24 hrs by propidium iodide staining (reference value: 8.694%). The experiment is classed as functional, cell-based.
Experiment [5] is described as follows: Cell cycle arrest in human 518A2 cells assessed as accumulation at G1/G0 phase at 50 uM after 24 hrs by propidium iodide staining (reference value: 46.662%). The format is functional, cell-based.
Experiment [6] relates to MCF7. The experiment can be described thus: Cytotoxicity against human MCF7 cells after 96 hrs by SRB assay. The experiment is classed as functional, cell-based.
The nature of experiment [7]: Cytotoxicity against human 518A2 cells after 96 hrs by SRB assay. The experiment is classed as functional, cell-based.
Experiment [8] has as its system 518A2. Kind of experiment: Induction of apoptosis in human 518A2 cells assessed as necrotic cells at 50 uM after 6 hrs by Annexin V FITC and propidium iodide staining by FACS analysis. The experiment is classed as functional.
Experiment [9] concerns A549. Kind of experiment: Cytotoxicity against human A549 cells after 96 hrs by SRB assay. The format is functional, cell-based.
In experiment [10] the test system is 518A2. Kind of experiment: Induction of apoptosis in human 518A2 cells assessed as total apoptotic cells at 50 uM after 6 hrs by Annexin V FITC and propidium iodide staining by FACS analysis. The format is functional. For orientation: A flow cytometer gives signals particle by particle.
Experiment [11] deals with A2780. Kind of experiment: Cytotoxicity against human A2780 cells after 96 hrs by SRB assay. The experiment is classed as functional, cell-based.
The test system of experiment [12] is 518A2. The experiment can be described thus: Induction of apoptosis in human 518A2 cells assessed as viable cells at 50 uM after 6 hrs by Annexin V FITC and propidium iodide staining by FACS analysis. The experiment is classed as functional. Particulars: 518A2, 6 h, read-out: Activity.
Experiment [13] relates to 8505C. Kind of experiment: Cytotoxicity against human 8505C cells after 96 hrs by SRB assay. The experiment is classed as functional, cell-based.
Experiment [14] concerns 518A2. Kind of experiment: Induction of apoptosis in human 518A2 cells assessed as formation of DNA ladder at 50 uM after 24 hrs using AO/PI dye by fluorescence microscopic analysis. The experiment is classed as functional, cell-based.
Experiment [15] concerns 518A2. Kind of experiment: Induction of apoptosis in human 518A2 cells assessed as total apoptotic cells at 30 uM after 6 hrs by Annexin V FITC and propidium iodide staining by FACS analysis. The experiment is classed as functional.
For experiment [16], the system named is 518A2. The experiment can be described thus: Induction of apoptosis in human 518A2 cells assessed as necrotic cells at 30 uM after 6 hrs by Annexin V FITC and propidium iodide staining by FACS analysis. The experiment is classed as functional.
The nature of experiment [17]: Cell cycle arrest in human 518A2 cells assessed as accumulation at G2/M phase at 30 uM after 24 hrs by propidium iodide staining (reference value: 8.694%). The experiment is classed as functional, cell-based.
Experiment [18] is described as follows: Cell cycle arrest in human 518A2 cells assessed as accumulation at G1/G0 phase at 30 uM after 24 hrs by propidium iodide staining (reference value: 46.662%). The experiment is classed as functional, cell-based.
For experiment [19], the system named is 518A2. Kind of experiment: Induction of apoptosis in human 518A2 cells assessed as viable cells at 30 uM after 6 hrs by Annexin V FITC and propidium iodide staining by FACS analysis. The format is functional. The following applies: 518A2, 6 h, read-out: Activity.
Experiment [20] can be described thus: Cell cycle arrest in human 518A2 cells assessed as accumulation at S phase at 30 uM after 24 hrs by propidium iodide staining (reference value: 44.643%). The experiment is classed as functional, cell-based.

As to `COC(=O)[C@@]1(C)CC[C@]2(C)CC[C@]3(C)c4c([se]c1c42)C(=O)[C@@H]1[C@@]2(C)CC[C@H](OC(C)=O)C(C)(C)[C@@H]2CC[C@]13C`, the IC50 stood at 46.1 µmol in experiment [1]; 67.2 µmol in [2]; 45.6 µmol in [6]; 36.7 µmol in experiment [7]; 46.9 µmol in experiment [9]; 33.7 µmol in experiment [11]. Further, the IC50 in experiment [13] is 42.2 µmol. The Activity in [3] was 8%; in experiment [4], -86%; in [5], 9%; in [8] it was 1.8%; in experiment [10], 13.2%. Also, the viability at 50 µM in experiment [12] was -15%. In addition, in experiment [14], the result was Active.

As to `COC(=O)[C@@]1(C)CC[C@]2(C)CC[C@]3(C)C(=CC(=O)[C@@H]4[C@@]5(C)CC[C@H](OC(C)=O)C(C)(C)[C@@H]5CC[C@]43C)[C@@H]2C1`, the IC50 in experiment [1] was 101.4 µmol; in experiment [2], 77.4 µmol; in experiment [6], 51.6 µmol; in [7], 26.1 µmol; in experiment [9] it was 42.6 µmol; in experiment [11] it was 40.5 µmol. For the same compound, the IC50 in [13] turned out to be 116.4 µmol. Further, the Activity in [3] was 4%; in experiment [4], -7%; in experiment [5], -2%; in [8] it was 2.5%; in [10], 16.8%. Besides, the viability at 50 µM in experiment [12] was -19.3%.

Turning to `COC(=O)[C@@]1(C)CC[C@]2(C)CC[C@]3(C)[C@@]4(C(=O)OC1=C24)C(=O)[C@@H]1[C@@]2(C)CC[C@H](OC(C)=O)C(C)(C)[C@@H]2CC[C@]13C`, the IC50 came to 38.1 µmol in experiment [1]; 58.7 µmol in experiment [2]; 33.5 µmol in experiment [6]; 14.7 µmol in [7]; 15 µmol in experiment [9]; 19.7 µmol in experiment [11]. In [13], this compound had an IC50 of 73.2 µmol. The Activity is 3.9% in experiment [15]; 0.5% in experiment [16]; -15% in experiment [17]; 11% in [18]; -8% in experiment [20]. In addition, in [19], the viability at 30 µM is -4.3%.

For the origin of these results see ChEMBL document CHEMBL2390825, “A bioassay-driven discovery of an unexpected selenophene and its cytotoxicity” (Bioorg Med Chem Lett, 2013).
